Laboratory results published in paper PMC5940250 (The Journal of General Physiology, 2018).
Counter-ions that a name gives are not always drawn.

Columns and labels:
Assay in all cases: two-electrode voltage clamp, oocytes, G
Type in all cases: cell-based
[1] = biological target: Shaker KV channel (Shaker H4, Δ6-46; "WT Shaker KV channel") (Drosophila melanogaster, UniProt P08510, DEL6-46/R362Q)
[2] = biological target: Shaker KV channel (Shaker H4, Δ6-46; "WT Shaker KV channel") (Drosophila melanogaster, UniProt P08510, DEL6-46/L358R/R362Q)
[3] = biological target: T1, human M channel (hKV7.2/7.3) (Homo sapiens, UniProt O43525+O43526)
[4] = biological target: T1, human M channel (hKV7.2/7.3); conditions: 100 µM; pH 7.4, room temperature; not significant

T1 sequence (O43526 whole entry): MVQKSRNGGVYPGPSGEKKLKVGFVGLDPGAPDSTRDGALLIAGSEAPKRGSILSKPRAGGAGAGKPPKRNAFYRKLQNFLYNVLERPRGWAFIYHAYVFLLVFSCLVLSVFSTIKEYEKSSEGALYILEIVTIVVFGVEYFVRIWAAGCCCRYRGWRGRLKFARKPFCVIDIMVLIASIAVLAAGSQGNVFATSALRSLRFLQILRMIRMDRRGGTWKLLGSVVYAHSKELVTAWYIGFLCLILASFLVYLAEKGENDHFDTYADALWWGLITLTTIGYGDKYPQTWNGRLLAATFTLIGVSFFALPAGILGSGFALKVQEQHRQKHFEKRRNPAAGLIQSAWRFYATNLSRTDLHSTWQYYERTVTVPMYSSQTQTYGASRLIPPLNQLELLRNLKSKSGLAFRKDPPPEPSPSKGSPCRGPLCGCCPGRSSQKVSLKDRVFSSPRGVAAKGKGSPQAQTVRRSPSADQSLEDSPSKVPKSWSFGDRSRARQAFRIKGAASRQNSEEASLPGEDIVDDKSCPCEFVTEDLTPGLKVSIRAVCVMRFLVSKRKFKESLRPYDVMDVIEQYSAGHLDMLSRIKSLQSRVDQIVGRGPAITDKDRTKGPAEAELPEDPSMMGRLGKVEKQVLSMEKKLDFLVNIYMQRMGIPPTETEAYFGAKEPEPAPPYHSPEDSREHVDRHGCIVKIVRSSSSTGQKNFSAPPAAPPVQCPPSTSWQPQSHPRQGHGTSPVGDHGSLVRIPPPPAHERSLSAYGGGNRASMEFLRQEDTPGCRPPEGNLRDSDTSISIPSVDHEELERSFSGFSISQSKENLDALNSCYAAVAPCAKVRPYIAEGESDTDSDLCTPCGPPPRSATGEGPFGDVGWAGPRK
T1 sequence (O43525 whole entry): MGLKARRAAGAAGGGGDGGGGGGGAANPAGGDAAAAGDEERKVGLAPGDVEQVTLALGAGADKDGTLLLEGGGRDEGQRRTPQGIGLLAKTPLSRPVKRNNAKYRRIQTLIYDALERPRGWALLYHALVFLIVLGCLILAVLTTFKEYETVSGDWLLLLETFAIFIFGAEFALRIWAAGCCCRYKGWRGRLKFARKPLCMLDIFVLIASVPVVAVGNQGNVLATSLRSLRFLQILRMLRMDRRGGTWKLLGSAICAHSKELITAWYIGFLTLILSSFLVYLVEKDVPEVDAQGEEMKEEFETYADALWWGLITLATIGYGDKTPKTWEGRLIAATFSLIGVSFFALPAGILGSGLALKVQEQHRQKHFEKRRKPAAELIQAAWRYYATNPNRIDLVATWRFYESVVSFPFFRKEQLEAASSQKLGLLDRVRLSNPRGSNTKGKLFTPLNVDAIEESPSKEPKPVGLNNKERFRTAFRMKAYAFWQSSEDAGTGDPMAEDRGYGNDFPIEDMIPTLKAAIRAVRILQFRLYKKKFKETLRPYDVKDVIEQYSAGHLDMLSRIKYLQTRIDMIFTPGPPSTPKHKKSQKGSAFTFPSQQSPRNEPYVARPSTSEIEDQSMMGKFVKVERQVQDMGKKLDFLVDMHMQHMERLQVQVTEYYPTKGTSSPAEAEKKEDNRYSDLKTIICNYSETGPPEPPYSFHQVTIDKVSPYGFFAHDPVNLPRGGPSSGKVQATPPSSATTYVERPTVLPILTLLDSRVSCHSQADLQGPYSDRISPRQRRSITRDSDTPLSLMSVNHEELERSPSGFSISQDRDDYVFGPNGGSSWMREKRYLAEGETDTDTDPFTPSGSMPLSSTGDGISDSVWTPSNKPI

| EC50 [1] [µM] | EC50 [2] [µM] | EC50 [3] [µM] | ΔV ± SEM [4] | SMILES |
| --- | --- | --- | --- | --- |
| 36 | 70 | 62 ± 15 |  | CC(C)c1ccc2c(c1)CC[C@H]1[C@](C)(COS(=O)(=O)O)CCC[C@]21C [Wu161, ((1R,4aS,10aR)-7-isopropyl-1,4a-dimethyl-1,2,3,4,4a,9,10,10a-octahydrophenanthren-1-yl)methyl hydrogen sulfate] |
|  |  |  | –1.5 ± 0.4 mV | CC(C)c1ccc2c(c1)CC[C@H]1[C@](C)(CNS(C)(=O)=O)CCC[C@]21C [Wu110, N-(((1R,4aS,10aR)-7-isopropyl-1,4a-dimethyl-1,2,3,4,4a,9,10,10a-octahydrophenanthren-1-yl)methyl)methanesulfonamide] |
|  |  | 12 ± 3 |  | C[C@@]1(COS(=O)(=O)O)CCC[C@]2(C)c3cc(Cl)c(Cl)c(Cl)c3CC[C@@H]12 [Wu181, ((1R,4aS,10aR)-6,7,8-trichloro-1,4a-dimethyl-2,3,4,9,10,10a-hexahydrophenanthrene-1-yl)methyl hydrogen sulfate] |
